# Assay results reported in US20080108582A1, “Methods And Compositions For Combinatorial Approaches To Cancer Gene Therapy” (priority 2003, published 2008).
# “Also recorded” adds a separate entry of the source.
# Columns and labels:
# [1] = test system: p53-RE (p53C#18) in wild type mouse embryonic fibroblasts; test: p53 response element luciferase assay with cisplatin; format: cell-based; conditions: wild type MEF; increasing concentrations at the time of transfection
# Protocol: FIG. 12. Treatment with cisplatin enhances activity of p53-RE in cells with wild type p53. Wild type and p53−/− mouse embryonic fibroblasts (MEF) were transfected with p53C#18 as described above. Increasing concentrations of cisplatin were added at the time of transfection. Luciferase assay was performed 36-48 hours later and transfection efficiency was normalized.
# To determine whether treatment with cisplatin (which increases steady-state level of p53 protein) can enhance activity of the p53-RE in normal cells, wild type and p53−/− mouse embryonic fibroblasts were treated with increasing concentrations of cisplatin at the time of transfection (FIG. 12).
# mouse model = conditions: 100 mg/kg, intra-peritoneal; cited from earlier work
# MCF-7 cells [2] = test: MTS cytotoxicity assay; format: cell-based, Human
# Protocol: (§1) MTS cytotoxicity assay. Cells were plated 2×10^4 per well in triplicate wells and incubated overnight. Serial dilutions of soluble TRAIL in Hank's balanced salt solution (HBSS) were added to the wells and cells were incubated for an additional 36 hours. Cytotoxicity was assessed using a CellTiter 96 Non-Radioactive Cell Proliferation Assay and medium background was subtracted. Results are presented as percent of HBSS-treated control.
# HCC 1937 cells [3] = test: MTS cytotoxicity assay; format: cell-based, Human
# Protocol: as §1
# CAMA-1 cells = test: MTS cytotoxicity assay; format: cell-based, Human; conditions: increasing concentrations of recombinant TRAIL, 48 hours
# Protocol: (§2) MTS cytotoxicity assay. Cells were plated 2×10^4 per well in triplicate wells and incubated overnight. […] Cytotoxicity was assessed using a CellTiter 96 Non-Radioactive Cell Proliferation Assay and medium background was subtracted. Results are presented as percent of HBSS-treated control.
# MDA-MB-231 cells = test: MTS cytotoxicity assay; format: cell-based, Human; conditions: increasing concentrations of recombinant TRAIL, 48 hours
# Protocol: as §2
# MCF-7 cells [4] = test: Annexin V determination by flow cytometry; format: cell-based, Human; conditions: 100 ng of TRAIL for 36 hours
# Protocol: (§3) Annexin V determination. 1×10^6 cells were plated per 60 mm dish and cultured overnight. Cells were than left untreated or treated with soluble TRAIL (100 ng/ml) and incubated for additional 36 hours. Cells were than trypsinized and washed with 1× Binding Buffer. For each condition, half of the cell suspension was left untreated and another half was incubated for 15 minutes at room temperature in the dark with Annexin V. Immediately after staining, cells were analyzed by flow cytometry.
# HCC 1937 cells [5] = test: Annexin V determination by flow cytometry; format: cell-based, Human; conditions: 100 ng of TRAIL for 36 hours
# Protocol: as §3
molecule,measurement,setting,value
"N.N.[Cl][Pt][Cl] [Cisplatin, cisplatin]",effect on activity of p53-RE (in words),[1],enhanced activity of p53C#18 in cells with wild type p53 in a dose-dependent manner
CCc1c2c(nc3ccc(OC(=O)N4CCC(N5CCCCC5)CC4)cc13)-c1cc3c(c(=O)n1C2)COC(=O)[C@]3(O)CC [irinotecan],drug-related toxicity (in words),mouse model,without drug-related toxicity
same,survival in a mouse model (in words),mouse model,prolong survival
"TRAIL: soluble TRAIL, residues 114-281 of the soluble domain of human TRAIL, expressed in E. coli (BIOMOL)",sensitivity to TRAIL-induced apoptosis by MTS (in words),MCF-7 cells [2],completely resistant
same,sensitivity to TRAIL-induced apoptosis by MTS (in words),HCC 1937 cells [3],completely resistant
same,cell viability by MTS (in words),CAMA-1 cells,significant TRAIL-dependent reduction of viability
same,cell viability by MTS (in words),MDA-MB-231 cells,significant TRAIL-dependent reduction of viability; also recorded: biphasic effect
same,increase in Annexin V staining,MCF-7 cells [4],approximately 17%
same,increase in Annexin V staining,HCC 1937 cells [5],approximately 17%
